Source: the NIST ThermoML archive (doi:10.1021/je800817b)
Each block holds one molecule with its values, some of them ahead of it.

Assay: xn = mol fraction of the nth substance listed
Conditions: 101 kPa, Liquid, x1 = 0

Compound: CCn1cc[n+](C)c1.O=S(=O)([N-]S(=O)(=O)C(F)(F)F)C(F)(F)F + CO
binary diffusion coefficient (283 K): 1.17e-09 m2/s
binary diffusion coefficient (298 K): 1.6e-09 m2/s
binary diffusion coefficient (313 K): 2.03e-09 m2/s
binary diffusion coefficient (323 K): 2.3e-09 m2/s
binary diffusion coefficient (333 K): 2.69e-09 m2/s

Compound: CCn1cc[n+](C)c1.O=S(=O)([N-]S(=O)(=O)C(F)(F)F)C(F)(F)F + O
binary diffusion coefficient (283 K): 6.1e-10 m2/s
binary diffusion coefficient (298 K): 8.9e-10 m2/s
binary diffusion coefficient (303 K): 9.8e-10 m2/s
binary diffusion coefficient (313 K): 1.27e-09 m2/s
binary diffusion coefficient (323 K): 1.55e-09 m2/s
binary diffusion coefficient (333 K): 1.85e-09 m2/s

Compound: CCCC[n+]1ccn(C)c1.O=S(=O)([N-]S(=O)(=O)C(F)(F)F)C(F)(F)F + CO
binary diffusion coefficient (283 K): 1.11e-09 m2/s
binary diffusion coefficient (298 K): 1.48e-09 m2/s
binary diffusion coefficient (313 K): 1.88e-09 m2/s
binary diffusion coefficient (323 K): 2.15e-09 m2/s
binary diffusion coefficient (333 K): 2.43e-09 m2/s

Compound: CCCCCCCCn1cc[n+](C)c1.O=S(=O)([N-]S(=O)(=O)C(F)(F)F)C(F)(F)F + CO
binary diffusion coefficient (283 K): 9.9e-10 m2/s
binary diffusion coefficient (298 K): 1.32e-09 m2/s
binary diffusion coefficient (313 K): 1.59e-09 m2/s
binary diffusion coefficient (323 K): 1.83e-09 m2/s
binary diffusion coefficient (333 K): 2.12e-09 m2/s

binary diffusion coefficient (283 K): 7.7e-10 m2/s
binary diffusion coefficient (298 K): 1.14e-09 m2/s
binary diffusion coefficient (303 K): 1.28e-09 m2/s
binary diffusion coefficient (313 K): 1.55e-09 m2/s
binary diffusion coefficient (323 K): 1.97e-09 m2/s
binary diffusion coefficient (333 K): 2.26e-09 m2/s
Compound: CCCCn1cc[n+](C)c1.F[B-](F)(F)F [1-butyl-3-methylimidazolium tetrafluoroborate] + O

Compound: CCCCCCCCn1cc[n+](C)c1.O=S(=O)([N-]S(=O)(=O)C(F)(F)F)C(F)(F)F + CC#N
binary diffusion coefficient (283 K): 1.62e-09 m2/s
binary diffusion coefficient (298 K): 2e-09 m2/s
binary diffusion coefficient (313 K): 2.31e-09 m2/s
binary diffusion coefficient (323 K): 2.57e-09 m2/s
binary diffusion coefficient (333 K): 2.86e-09 m2/s

Compound: CCCC[n+]1ccn(C)c1.O=S(=O)([N-]S(=O)(=O)C(F)(F)F)C(F)(F)F + CC#N
binary diffusion coefficient (283 K): 1.7e-09 m2/s
binary diffusion coefficient (298 K): 2.22e-09 m2/s
binary diffusion coefficient (313 K): 2.7e-09 m2/s
binary diffusion coefficient (323 K): 3.07e-09 m2/s
binary diffusion coefficient (333 K): 3.45e-09 m2/s

Compound: CCn1cc[n+](C)c1.O=S(=O)([N-]S(=O)(=O)C(F)(F)F)C(F)(F)F + CC#N
binary diffusion coefficient (283 K): 1.79e-09 m2/s
binary diffusion coefficient (298 K): 2.29e-09 m2/s
binary diffusion coefficient (313 K): 2.78e-09 m2/s
binary diffusion coefficient (323 K): 3.15e-09 m2/s
binary diffusion coefficient (333 K): 3.48e-09 m2/s

Compound: CCCC[n+]1ccn(C)c1.O=S(=O)([N-]S(=O)(=O)C(F)(F)F)C(F)(F)F + O
binary diffusion coefficient (283 K): 6e-10 m2/s
binary diffusion coefficient (298 K): 8.5e-10 m2/s
binary diffusion coefficient (303 K): 9.6e-10 m2/s
binary diffusion coefficient (313 K): 1.16e-09 m2/s
binary diffusion coefficient (323 K): 1.47e-09 m2/s
binary diffusion coefficient (333 K): 1.74e-09 m2/s

Compound: CCCCCCCCn1cc[n+](C)c1.O=S(=O)([N-]S(=O)(=O)C(F)(F)F)C(F)(F)F + O
binary diffusion coefficient (283 K): 5.7e-10 m2/s
binary diffusion coefficient (298 K): 8.1e-10 m2/s
binary diffusion coefficient (303 K): 8.7e-10 m2/s
binary diffusion coefficient (313 K): 1.05e-09 m2/s
binary diffusion coefficient (323 K): 1.31e-09 m2/s
binary diffusion coefficient (333 K): 1.47e-09 m2/s

Compound: CCCCCC[n+]1ccn(C)c1.O=S(=O)([N-]S(=O)(=O)C(F)(F)F)C(F)(F)F + CC#N
binary diffusion coefficient (283 K): 1.67e-09 m2/s
binary diffusion coefficient (298 K): 2.1e-09 m2/s
binary diffusion coefficient (313 K): 2.51e-09 m2/s
binary diffusion coefficient (323 K): 2.74e-09 m2/s
binary diffusion coefficient (333 K): 2.99e-09 m2/s

Compound: CCCCCC[n+]1ccn(C)c1.O=S(=O)([N-]S(=O)(=O)C(F)(F)F)C(F)(F)F + O
binary diffusion coefficient (283 K): 5.8e-10 m2/s
binary diffusion coefficient (298 K): 8.3e-10 m2/s
binary diffusion coefficient (303 K): 9e-10 m2/s
binary diffusion coefficient (313 K): 1.15e-09 m2/s
binary diffusion coefficient (323 K): 1.39e-09 m2/s
binary diffusion coefficient (333 K): 1.63e-09 m2/s

Compound: CCCCCC[n+]1ccn(C)c1.O=S(=O)([N-]S(=O)(=O)C(F)(F)F)C(F)(F)F + CO
binary diffusion coefficient (283 K): 1.05e-09 m2/s
binary diffusion coefficient (298 K): 1.34e-09 m2/s
binary diffusion coefficient (313 K): 1.64e-09 m2/s
binary diffusion coefficient (323 K): 1.99e-09 m2/s
binary diffusion coefficient (333 K): 2.21e-09 m2/s

binary diffusion coefficient (283 K): 8.3e-10 m2/s
binary diffusion coefficient (298 K): 1.18e-09 m2/s
binary diffusion coefficient (303 K): 1.32e-09 m2/s
binary diffusion coefficient (313 K): 1.66e-09 m2/s
binary diffusion coefficient (323 K): 2.01e-09 m2/s
binary diffusion coefficient (333 K): 2.4e-09 m2/s
Compound: CCCCn1cc[n+](C)c1.[Cl-] [1-butyl-3-methylimidazolium chloride] + O
